Common to all, as to format: cell-based
Common to all, as to conditions: n = 2

In test [1] the target is T1, hGluc-R (Homo sapiens, UniProt P47871).
T1 construct: expressed in transfected cells
The experiment in a line: cAMP functional assay, cells expressing human glucagon receptor (primary assay).

Test [2] concerns the target T2, hGLP-1R (Homo sapiens, UniProt P43220).
T2 construct: expressed in transfected cells
The experiment in a line: cAMP functional assay, cells expressing human GLP-1 receptor (primary assay).

The target in test [3] is T3, hGIP-R (Homo sapiens, UniProt P48546).
T3 construct: expressed in transfected cells
T3 sequence (P48546 22-466): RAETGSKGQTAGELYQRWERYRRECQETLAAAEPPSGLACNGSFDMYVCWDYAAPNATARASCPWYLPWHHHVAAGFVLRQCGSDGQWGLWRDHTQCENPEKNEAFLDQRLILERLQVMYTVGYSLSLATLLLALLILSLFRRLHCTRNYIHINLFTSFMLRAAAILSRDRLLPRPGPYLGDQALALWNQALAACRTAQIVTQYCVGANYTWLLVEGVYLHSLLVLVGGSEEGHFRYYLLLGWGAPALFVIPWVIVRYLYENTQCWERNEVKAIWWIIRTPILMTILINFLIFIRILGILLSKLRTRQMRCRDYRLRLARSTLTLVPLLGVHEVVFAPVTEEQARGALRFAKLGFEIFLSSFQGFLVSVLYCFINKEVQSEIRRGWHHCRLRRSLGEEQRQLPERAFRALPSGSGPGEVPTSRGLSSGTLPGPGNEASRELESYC
The experiment in a line: cAMP functional assay, cells expressing human GIP receptor (primary assay).

*1 amine or outer side, *2 acyl side, *3 side chain or, on linkers, in order; H or OH if unused. Where a SMILES comes first, the peptide text is derived from it. Side-chain parts run from the residue outwards. [ ]: non-standard residue; d: D form. The star is where a group is joined. γGlu = O=C(O)[C@H](CCC(=O)[*:2])N[*:1]; Palmitoyl = CCCCCCCCCCCCCCCC(=O)*; αMeF = C[C@](N)(Cc1ccccc1)C(=O)O; αMeK = C[C@](N)(CCCCN)C(=O)O; Aib = CC(C)(N)C(=O)O

T1 sequence (P47871 26-477): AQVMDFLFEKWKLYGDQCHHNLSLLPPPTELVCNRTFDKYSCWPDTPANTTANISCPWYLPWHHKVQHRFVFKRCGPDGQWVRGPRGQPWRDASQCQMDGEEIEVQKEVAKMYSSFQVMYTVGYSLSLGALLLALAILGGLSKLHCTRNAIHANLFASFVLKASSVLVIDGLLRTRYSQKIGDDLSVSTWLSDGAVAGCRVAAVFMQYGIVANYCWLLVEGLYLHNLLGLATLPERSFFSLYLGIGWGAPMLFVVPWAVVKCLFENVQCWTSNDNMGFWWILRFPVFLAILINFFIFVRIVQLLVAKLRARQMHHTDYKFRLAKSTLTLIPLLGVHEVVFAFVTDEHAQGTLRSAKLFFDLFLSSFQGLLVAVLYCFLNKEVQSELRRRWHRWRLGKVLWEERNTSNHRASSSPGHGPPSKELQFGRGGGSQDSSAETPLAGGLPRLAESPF
T2 sequence (P43220 24-463): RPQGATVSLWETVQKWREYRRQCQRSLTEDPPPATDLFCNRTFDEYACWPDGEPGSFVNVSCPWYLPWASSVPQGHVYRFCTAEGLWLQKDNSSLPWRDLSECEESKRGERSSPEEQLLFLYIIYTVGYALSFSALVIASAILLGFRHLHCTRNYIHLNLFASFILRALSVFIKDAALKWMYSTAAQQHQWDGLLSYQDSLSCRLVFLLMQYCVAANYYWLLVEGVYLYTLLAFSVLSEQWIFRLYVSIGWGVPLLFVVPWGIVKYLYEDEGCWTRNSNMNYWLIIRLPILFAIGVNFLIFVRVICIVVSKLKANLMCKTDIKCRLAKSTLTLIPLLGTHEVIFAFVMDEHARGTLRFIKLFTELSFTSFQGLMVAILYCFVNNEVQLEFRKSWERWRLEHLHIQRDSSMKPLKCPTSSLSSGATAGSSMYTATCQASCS

On to `CCCCCCCCCCCCCCCC(=O)N[C@@H](CCC(=O)NCCCC[C@H](NC(=O)CNC(=O)[C@H](CO)NC(=O)[C@H](CO)NC(=O)CNC(=O)[C@H](CO)NC(=O)[C@H](CO)NC(=O)CNC(=O)[C@H](CO)NC(=O)[C@H](CO)NC(=O)CNC(=O)CNC(=O)[C@H](CCCCN)NC(=O)[C@@H](NC(=O)[C@H](CC(C)C)NC(=O)[C@](C)(Cc1ccccc1)NC(=O)[C@H](C)NC(=O)[C@@H](NC(=O)[C@](C)(Cc1ccccc1)NC(=O)[C@H](CCC(=O)O)NC(=O)[C@H](CCCCN)NC(=O)[C@H](C)NC(=O)[C@H](C)NC(=O)[C@H](CCC(N)=O)NC(=O)CNC(=O)[C@H](CCC(=O)O)NC(=O)[C@H](CC(C)C)NC(=O)[C@](C)(Cc1ccccc1)NC(=O)[C@H](CO)NC(=O)[C@H](CO)NC(=O)[C@@H](NC(=O)[C@H](CC(=O)O)NC(=O)[C@H](CO)NC(=O)[C@@H](NC(=O)[C@](C)(Cc1ccccc1)NC(=O)[C@H](CO)NC(=O)CNC(=O)[C@H](CCC(=O)O)NC(=O)C(C)(C)NC(=O)[C@@H](N)Cc1c[nH]cn1)[C@@H](C)O)C(C)C)[C@@H](C)CC)C(C)C)C(N)=O)C(=O)O` [SEQ ID NO: 49, H-(Aib)^2-EG-(S)^5-(α-MeF)^6-TSDV^10 SS-(α-MeF)^13-LE^15 GQAAK^20 E-(α-MeF)^22-IA-(α-MeF)^25 LVKG-(G)^30-(SSG)3-K(Ε-γ-E-Palm)] (H-H[Aib]EGS[αMeF]TSDVSS[αMeF]LEGQAAKE[αMeF]IA[αMeF]LVKGGSSGSSGSSGK([γGlu-Palmitoyl])-NH2), for which the results for the concentration for a half-maximal effect (EC50) in test [1], in test [2] and in test [3] were 75.9 nM, 0.00929 nM and 40.9 nM, respectively.

Regarding `CC[C@H](C)[C@H](NC(=O)[C@H](Cc1ccccc1)NC(=O)[C@H](CCC(=O)O)NC(=O)[C@H](CCCCN)NC(=O)[C@H](C)NC(=O)[C@H](C)NC(=O)[C@H](CCC(N)=O)NC(=O)CNC(=O)[C@H](CCC(=O)O)NC(=O)[C@H](CC(C)C)NC(=O)[C@H](Cc1ccc(O)cc1)NC(=O)[C@H](CO)NC(=O)[C@H](CO)NC(=O)[C@@H](NC(=O)[C@H](CC(=O)O)NC(=O)[C@H](CO)NC(=O)[C@@H](NC(=O)[C@](C)(Cc1ccccc1)NC(=O)[C@@H](NC(=O)CNC(=O)[C@H](CCC(=O)O)NC(=O)C(C)(C)NC(=O)[C@@H](N)Cc1c[nH]cn1)[C@@H](C)O)[C@@H](C)O)C(C)C)C(=O)N[C@@H](C)C(=O)N[C@@H](Cc1c[nH]c2ccccc12)C(=O)N[C@@H](CC(C)C)C(=O)N[C@H](C(=O)N[C@@H](CCCCN)C(=O)NCC(=O)N[C@@H](CCCNC(=N)N)C(N)=O)C(C)C` [SEQ ID NO: 6, H-(Aib)^2-EGT^5-(α-MeF)^6-TSDV^10 SSYLE^15 GQAAK^20 EFIAW^25 LVKGR^30], the figures for the EC50 in test [1], in test [2] and in test [3] were 153 nM, 0.026 nM and 74.9 nM, respectively.

`CC[C@H](C)[C@H](NC(=O)[C@](C)(Cc1ccccc1)NC(=O)[C@H](CCC(=O)O)NC(=O)[C@](C)(CCCCN)NC(=O)[C@H](C)NC(=O)[C@H](C)NC(=O)[C@H](CCC(N)=O)NC(=O)CNC(=O)[C@H](CCC(=O)O)NC(=O)[C@H](CC(C)C)NC(=O)[C@](C)(Cc1ccc(O)cc1)NC(=O)[C@H](CO)NC(=O)[C@H](CO)NC(=O)[C@@H](NC(=O)[C@H](CC(=O)O)NC(=O)[C@H](CO)NC(=O)[C@@H](NC(=O)[C@](C)(Cc1ccccc1)NC(=O)[C@H](CO)NC(=O)CNC(=O)[C@H](CCC(=O)O)NC(=O)C(C)(C)NC(=O)[C@@H](N)Cc1c[nH]cn1)[C@@H](C)O)C(C)C)C(=O)N[C@@H](C)C(=O)N[C@@](C)(Cc1c[nH]c2ccccc12)C(=O)N[C@@H](CC(C)C)C(=O)N[C@H](C(=O)N[C@@](C)(CCCCN)C(=O)NCC(=O)N[C@@](C)(CCCNC(=N)N)C(N)=O)C(C)C` [SEQ ID NO: 57, H-(Aib)^2-EG-(S)^5-(α-MeF)^6-TSDV^10 SS-(α-MeY)^13-LE^15 GQAA-(α-MeK)^20 E-(α-MeF)^22-IA-(α-MeW)^25 LV-(α-MeK)^28-G-(α-MeR)^30]: the EC50 in test [1] is 19.9 nM; in test [2], 0.0271 nM; in test [3], 139 nM.

`CC[C@H](C)[C@H](NC(=O)[C@H](Cc1ccccc1)NC(=O)[C@H](CCC(=O)O)NC(=O)[C@H](CCCCN)NC(=O)[C@H](C)NC(=O)[C@H](C)NC(=O)[C@H](CCC(N)=O)NC(=O)CNC(=O)[C@H](CCC(=O)O)NC(=O)[C@H](CC(C)C)NC(=O)[C@H](Cc1ccc(O)cc1)NC(=O)[C@H](CO)NC(=O)[C@H](CO)NC(=O)[C@@H](NC(=O)[C@H](CC(=O)O)NC(=O)[C@H](CO)NC(=O)[C@@H](NC(=O)C(C)(C)NC(=O)[C@@H](NC(=O)CNC(=O)[C@H](CCC(=O)O)NC(=O)C(C)(C)NC(=O)[C@@H](N)Cc1c[nH]cn1)[C@@H](C)O)[C@@H](C)O)C(C)C)C(=O)N[C@@H](C)C(=O)N[C@@H](Cc1c[nH]c2ccccc12)C(=O)N[C@@H](CC(C)C)C(=O)N[C@H](C(=O)N[C@@H](CCCCN)C(=O)NCC(=O)N[C@@H](CCCNC(=N)N)C(N)=O)C(C)C` [SEQ ID NO: 7, H-(Aib)^2-EGT^5-(Aib)^6-TSDV^10 SSYLE^15 GQAAK^20 EFIAW^25 LVKGR^30]: the concentration for a half-maximal effect (EC50) in test [1] was 151 nM; in test [2] it was 0.0728 nM; in test [3], 151 nM.

As for `CCCCCCCCCCCCCCCC(=O)NCCCC[C@H](NC(=O)CNC(=O)CNC(=O)[C@](C)(CCCCN)NC(=O)[C@@H](NC(=O)[C@H](CC(C)C)NC(=O)[C@](C)(Cc1ccccc1)NC(=O)[C@H](C)NC(=O)[C@@H](NC(=O)[C@](C)(Cc1ccccc1)NC(=O)[C@H](CCC(=O)O)NC(=O)[C@](C)(CCCCN)NC(=O)[C@H](C)NC(=O)[C@H](C)NC(=O)[C@H](CCC(N)=O)NC(=O)CNC(=O)[C@H](CCC(=O)O)NC(=O)[C@H](CC(C)C)NC(=O)[C@](C)(Cc1ccccc1)NC(=O)[C@H](CO)NC(=O)[C@H](CO)NC(=O)[C@@H](NC(=O)[C@H](CC(=O)O)NC(=O)[C@H](CO)NC(=O)[C@@H](NC(=O)[C@](C)(Cc1ccccc1)NC(=O)[C@H](CO)NC(=O)CNC(=O)[C@H](CCC(=O)O)NC(=O)C(C)(C)NC(=O)[C@@H](N)Cc1c[nH]cn1)[C@@H](C)O)C(C)C)[C@@H](C)CC)C(C)C)C(N)=O` [SEQ ID NO: 47, H-(Aib)^2-EG-(S)^5-(α-MeF)^6-TSDV^10 SS-(α-MeF)^13-LE^15 GQAA-(α-MeK)^20 E-(α-MeF)^22-IA-(α-MeF)^25 LV-(α-MeK)^28-G-(G)^30-K(Ε-Palm)] (H-H[Aib]EGS[αMeF]TSDVSS[αMeF]LEGQAA[αMeK]E[αMeF]IA[αMeF]LV[αMeK]GGK(Palmitoyl)-NH2), the concentration for a half-maximal effect (EC50) in test [1] was determined as 92.7 nM; in test [2], 0.105 nM; in test [3], 92.7 nM.

As to `CC[C@H](C)[C@H](NC(=O)[C@H](Cc1ccccc1)NC(=O)[C@H](CCC(=O)O)NC(=O)[C@H](CCCCN)NC(=O)[C@H](C)NC(=O)[C@H](C)NC(=O)[C@H](CCC(N)=O)NC(=O)CNC(=O)[C@H](CCC(=O)O)NC(=O)[C@H](CC(C)C)NC(=O)[C@H](Cc1ccc(O)cc1)NC(=O)[C@H](CO)NC(=O)[C@H](CO)NC(=O)[C@@H](NC(=O)[C@H](CC(=O)O)NC(=O)[C@H](CO)NC(=O)[C@@H](NC(=O)[C@H](Cc1ccccc1)NC(=O)[C@@H](NC(=O)CNC(=O)[C@H](CCC(=O)O)NC(=O)C(C)(C)NC(=O)[C@@H](N)Cc1c[nH]cn1)[C@@H](C)O)[C@@H](C)O)C(C)C)C(=O)N[C@@H](C)C(=O)N[C@@H](Cc1c[nH]c2ccccc12)C(=O)N[C@@H](CC(C)C)C(=O)N[C@H](C(=O)NC(C)(C)C(=O)NCC(=O)N[C@@H](CCCNC(=N)N)C(N)=O)C(C)C` [SEQ ID NO: 23, H-(Aib)^2-EGT^5 FTSDV^10 SSYLE^15 GQAAK^20 EFIAW^25 LV-(Aib)^28-GR^30], the 50% effective concentration (EC50) in test [1] is 103 nM; in test [2], 0.0279 nM; in test [3], 105 nM.

Values taken from patent publication US20160318987A1 (MEDIMMUNE LIMITED, priority 2013, published 2016).
